Where two headings read alike, the source gives them in different places.
Legend:
Aβ1-40 = molecular target: T1, Aβ1-40 (Homo sapiens, UniProt P05067); experiment: Time-dependent fibril formation monitored by dye fluorescence; type: binding; settings: Aβ1-40 at 37° C. with shaking; aliquots added to dye
T1 construct: Synthetic Aβ1-40 was purchased from American Peptide Co; purchased American Peptide Co. (Sunnyvale, Calif.); host or cells: chemical synthesis
Procedure: For monitoring of fibril formation over time, 40 µM peptide solution of Aβ1-40 was prepared as above and incubated at 37° C. with 5 s shaking at every 7 min interval. Fluorescence readings were taken at various time point intervals by mixing a 30 μL aliquot of peptide solution to […]. ThT signal was monitored at 480 nm by 444 nm excitation, whereas BD-Oligo was excited at 530 nm and its emission detected at 585 nm. Fluorescence was measured using a SpectraMax M2 spectrophotometer (Molecular Devices, Sunnyvale, Calif.). Aβ1-40 was also coincubated with dye to study any effects the dye may have on fibril formation.

Aβ oligomers = molecular target: T2, Aβ oligomers (Homo sapiens, UniProt P05067); experiment: Saturation assay, apparent binding constant for Aβ oligomers; settings: Aβ oligomers 20 μM, λex=530 nm
T2 construct: Preformed oligomers were prepared by Aβ1-40 peptide solubilized in borate-buffered saline; purchased American Peptide Co. (Sunnyvale, Calif.); host or cells: chemical synthesis, then cross-linked in house with glutaraldehyde
T2 sequence (P05067 672-711 limits assumed): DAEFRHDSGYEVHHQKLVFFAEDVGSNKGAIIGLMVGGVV
Procedure: FIG. 7 depicts BD-Oligo binding constant (Aβ oligomers: 20 μM, λex=530 nm), F is the fluorescence intensity of BD-Oligo at 580 nm after binding with Aβ oligomers; and F0 is the fluorescence intensity of BD-Oligo at 580 nm before binding with Aβ oligomers.
To quantify the affinity of BDOligo for Aβ oligomers, we measured the apparent binding constant (Kd) of BD-Oligo by conducting a saturation assay.

[1] = molecular target: T3, Aβ1-40 monomers, oligomers, fibrils (Homo sapiens, UniProt P05067); experiment: Emission of dye incubated with preformed Aβ monomers, oligomers and fibrils; type: binding; settings: Aβ 20 μM
T3 construct: Synthetic Aβ1-40 was purchased from American Peptide Co; purchased American Peptide Co. (Sunnyvale, Calif.); host or cells: chemical synthesis
T3 sequence (P05067 672-711 limits assumed): as above
Procedure: Synthetic Aβ1-40 was purchased from American Peptide Co. (Sunnyvale, Calif.) in lyophilized form. Dry peptide was dissolved in 1,1,1,3,3,3-hexafluoro-2-isopropanol (HFIP) and incubated at 25° C. for 1 h to remove any preformed aggregates. It was aliquoted into small aliquots and dried using a speed-vac. The dry peptide was stored at −20° C. until required, where each aliquot was then dissolved in 5 M GuHCl 10 mM Tris.Cl pH 8 to 1 mM peptide solution. After sonication in a sonicating water bath for 15 min, the solution was diluted with phosphate-buffered saline (PBS), pH 7.4, and stored on ice until use. This freshly prepared sample is referred to as monomer. To form fibrils, 100 μM sample is incubated for 24 h at 37° C. with 5 s shaking at a 7 min interval. […] Prior to fluorescence assays, it is resolubilized in deionized distilled water and diluted in PBS. […]
HPLC-MS was taken on an Agilent-1200 with a DAD detector and a single quadrupole mass spectrometer (6130 series). […] Spectroscopic and quantum yield data were measured on a SpectraMax M2 spectrophotometer (Molecular Devices). Compounds in solvent (100 μL) in 96-well polypropylene plates was for fluorescence measurement. […] 1H-NMR and 13C-NMR spectra were recorded on Bruker AMX500 (500 MHz) spectrometers, and chemical shifts are expressed in parts per million (ppm) and coupling constants are reported as a J value in Hertz (Hz).

[2] = tested on: APP/PS1 transgenic (Tg) AD model mice; experiment: Ex vivo imaging of brains after ip injection; type: in vivo
Procedure: For ex vivo imaging, a stock solution of BD-Oligo was made at 10 mM in 100% DMSO.
Eighteen month old APP/PS 1 transgenic (Tg) AD model mice were given intraperitoneal (ip) injections with either 1.25 μL of BD-Oligo diluted in 500 μL of saline (n=2) or 500 μL of saline alone (n=2). APP/PS 1 Tg mice develop amyloid plaques from 4 months of age. Mice were anesthetized with an overdose of sodium pentobarbital and perfused 0.1 M PBS, pH 7.4. Brains were removed 24 h after the ip injection and fixed by immersion in periodate-lysine-paraformaldehyde for 24 h, cryo-protected in 30% sucrose for 3 days, and sectioned into 40 μm coronal sections using a cryostat. Brain sections from the BD-Oligoinjected mouse and the control APP/PS 1 mouse that received a saline alone injection were then stained for Aβ using fluorescent immunohistochemistry. Briefly, free floating sections were incubated with MOM blocking reagent (Vector) followed by an overnight incubation at 4° C. with anti-Aβ antibodies 4G8 and 6E10 diluted in MOM protein concentrate (Vector), as the present inventors previously published. Sections were then incubated with a 488 conjugated secondary antibody (Jackson Immunoresearch) for 2 h at room temperature, mounted onto slides, and cover slipped. Staining was visualized using a LMD6500 fluorescent microscope (Leica); 6E10/4G8 staining was imaged using in the green (488) channel, and BD-Oligo was imaged in the red (561) channel.

T1 sequence (P05067 672-711 limits assumed): as above

| Compound | incubation time at maximum fluorescence during Aβ fibril formation (Aβ1-40) | Bmax, best-fit value (Aβ oligomers; detailed statistics of the saturation fit) | Kd (Aβ oligomers; detailed statistics of the saturation fit, read-out: Kd, best-fit value) [nM] | Kd (Aβ oligomers; saturation assay, Scatchard plot, emission 580 nm, read-out: apparent binding constant (Kd) for Aβ oligomers) [nM] | fluorescence enhancement with Aβ monomers, oligomers, fibrils ([1]; λex=530 nm) | toxicity associated with in vivo injection ([2]; 18 month old APP/PS1 Tg mice) | blood-brain barrier penetration ([2]; 18 month old APP/PS1 Tg mice, brains removed after 24 h) | labeling of brain tissue ([2]; brain sections 24 h later, co-stained with anti-Aβ 6E10/4G8) | fluorescence response to Aβ monomers, oligomers, fibrils ([1]; λex=440 nm, dye 5 μM) |
| --- | --- | --- | --- | --- | --- | --- | --- | --- | --- |
| CCOc1cccc(C=Cc2cc(C)c3n2[B-](F)(F)[N+]2=C(CCC(=O)OCC(Cl)(Cl)Cl)C=CC2=C3)c1O [BD-Oligo] | about 1 day | 7.886 | 482 | 480 | highest fluorescence enhancement is observed upon incubation with Aβ oligomers | no apparent toxicity | able to cross the BBB | fluorescent labeling of AD brain tissue | – |
| Cc1ccc2c(c1)sc(-c1ccc(N(C)C)cc1)[n+]2C.[Cl-] [ThT, Thioflavin T, reference compound] | about 1 day | – | – | – | – | – | – | – | increasing order of freshly prepared Aβ monomers, followed by oligomer and fibrils |
